Measurements reported in patent publication EP0545991B1, “PEPTIDES THAT BLOCK HUMAN IMMUNODEFICIENCY VIRUS INFECTIONS AND METHODS OF USE THEREOF” (VAHLNE, Anders, priority 1990, dated 1992).
Like-named read-outs stand apart in the source and are kept apart here. Where a SMILES comes first, the peptide text is derived from it.

Legend:
[1] = test system: HTLV IIIB/H9 N.Y.
Method: (§1) Table 1 lists the peptides and their amino acid sequences tested against the following virus/cell systems: • (1) HTLV-111B/H9 Denmark (obtained from Denmark, Bent Faber-Vestergard); • (2) HTLV-111B/H9 New York (obtained from Dr. William Hall, North Shore Hospital, Manhasset, N.Y.); and • (3) ELI-1/HUT (obtained from Dr. Levy, San Francisco, CA).
(§2) Virus at 100 50% tissue culture infectious doses (TCID50) and peptides at concentrations of 250 and 25 µg/ml were added to the cells simultaneously and incubated for 2 hours at 4°C with frequent stirring. Subsequently, the temperature was increased to 37°C and the mixtures were subjected to a second incubation for 2 hours. Following the second incubation, the cells were centrifuged at 325 x g and washed once in RPMI medium (Gibco Laboratories, NY). Cells, at a concentration of 5 x 10^5/ml, were then added to 24 multidish well plates at a final volume of 1.5 ml of growth medium (RPMI supplemented with 10% fetal calf serum (FCS), antibiotics and polybrene (2 µg/ml)), with the addition of peptides at dilutions of 250 or 25 µg/ml. […] As additional controls, two HIV infected cell cultures (designated pos. controls 1 and 2, Tables 3-5) and two uninfected cell cultures (designated neg. controls 1 and 2) were used.
(§3) Infected cells were continuously monitored for formation of syncytia and the growth medium supernatants were analyzed at days 9-12 p.i. for p24 antigen which is an indicator of HIV replication.
(§4) Briefly, the following protocol was used for detection of the p24 antigen. HIV p24 antigen was determined using a rabbit anti-p24 polyclonal antiserum as capture antibody and a biotinylated rabbit anti-p24 polyclonal antibody was used as detecting antibody in an avidin-horse radish peroxidase (HRP) ELISA. The sensitivity of the assay allowed detection of approximately 50 pg of p24 antigen per ml supernatant. […] Serial dilutions of the supernatants were made so as to detect p24 concentration in the most accurate range (< 2.0 absorbance units).
(§5) At the end of the experiment, the cells were collected and fixed on slides with acetone according to standard procedures as described in Jeansson et al., Exp. Cell Res., 161:181-188 (1985). The number of infected cells were then determined by indirect immunofluorescence using a human HIV positive serum diluted 1/100 and FITC conjugated antihuman IgG (Bio Merieux, France) diluted 1/200.
(§6) In tables 3-6, the p24 content of the supernatants of infected cells was determined by diluting the supernatants of infected cells in serial tenfold dilutions (1/10, 1/100, 1/1000 and 1/10,000) and analyzing in ELISA as described above. Results are indicated by the absorbance values (454nm) of respective dilutions.
The peptides in their carboxy and amido forms were obtained from Bachem Feinchemikalien AG (Switzerland, GPG-NH2 Bachem, GPG-COOH, Bachem, PG-NH2 Bachem and PG-COOH Bachem) and Syntello (Sweden, GPG-NH2 Syntello). The effectiveness of the peptides was determined by both p24 production and syncytia formation as described in Example 2.
In tables 8 and 9, the p24 content of the supernatants of infected cells was determined by diluting the supernatants in serial tenfold dilutions (1/10, 1/100, 1/1,000) and analyzing by ELISA as described in Example 2. Results are indicated by the absorbance values (454 nm) of respective dilutions.

[2] = test system: ELI1/HUT
Method: as §1, §2, §3, §4, §5, §6

[3] = test system: HTLV IIIB/H9 Denmark
Method: as §1, §2, §3, §4, §5, §6

[4] = test system: HTLV-IIIB replication in H9 cells; test: Dose response and combination experiments, p24 ELISA; format: cell-based, HIV; conditions: Human immunodeficiency virus 1, IIIB, H9, read-out: approximate ID50 (p24 antigen reduced by 50%), supernatants diluted 1/5
Method: The results in Tables 10 and 11 were obtained as described in Example 2. The supernatants were tested for p24 on day 8 p.i. Supernatants were serially diluted (1/5, 1/50 and 1/500) and analyzed by ELISA as described in Example 2.

[5] = test system: herpes simplex virus type I (HSV-1) strain McIntyre; test: Yield inhibition assay of HSV-1 in GMK cells; format: cell-based
Method: To determine the specificity and toxicity of the peptides, Tyr-Arg-Gly-Pro-Gly, Gly-Pro-Gly and Arg-Gly-Pro-Gly were tested in (1) a plaque reduction assay and (2) a yield inhibition assay of herpes simplex virus type I (HSV-1) strain McIntyre.
The yield inhibition assay was performed as follows: HSV-1 was inoculated at a multiplicity of 0.5 pfu per GMK cell in the presence of the respective peptide at concentrations of 250 and 25 µg/ml. Virus adsorption was performed for 60 min. at room temperature. The cells were then rinsed five times with Hanks' Balanced Salt Solution (BSS) and incubated in a 5% CO2 atmosphere at 37°C with maintenance medium containing either peptides or acyclovir, according to the methods described in "Proceedings of a Symposium on Acyclovir", The American Journal of Medicine, July 20, (1982) which is incorporated herein by reference, or without any additives. Twenty-four hours p.i. the cells were freeze-thawed, scraped into the medium and tested for virus yield by the infectivity assay as outlined in Example 2. The results are shown in Table 7 where the plaque reduction values are the mean of two cultures and the yield of HSV-1 after 24 hours is the mean of two determinations and the values are presented in millions of pfu/ml.

[6] = test system: peripheral blood mononuclear cells; test: Viability of mononuclear cells, flow cytometry after propidium iodide; format: cell-based, human
Method: The possibility that Gly-Pro-Gly may affect the viability and/or function of normal human circulating lymphomonocytic cells was examined by adding Gly-Pro-Gly to unfractionated and T cell enriched (CD2^+ = nominal T cells; CD4^+ = putative helper/inducer T cell subset; CD8+ = putative cytotoxic/suppressor T cell subset) peripheral blood mononuclear cell suspensions from healthy normal blood donors.
Thus, the viability of peripheral blood mononuclear cells exposed to Gly-Pro-Gly (2 mM, 4 days) was 99.67% and that of corresponding unexposed cells was 99.66% (mean of 4 experiments).

[7] = In vivo toxicity, growth of mice after intraperitoneal injections; conditions: intraperitoneal injections starting at an age of 6 days; compared with controls
Text: In an in vivo test of the toxicity of Gly-Pro-Gly, groups of mice were given intraperitoneal injections of the substance starting at an age of 6 days. Figure 3 also graphically depicts the results. […] The peptides are thus non-toxic even when given in large doses.

[8] = test system: HTLV IIIB/H9 N.Y.; test: Infectivity assay (p24 ELISA, syncytia formation, indirect immunofluorescence), HTLV-IIIB/H9 New York; format: cell-based, HIV
[9] = test system: ELI1/HUT; test: Infectivity assay (p24 ELISA, indirect immunofluorescence), ELI-1/HUT; format: cell-based, HIV
[10] = test system: HIV; format: cell-based
Method: Virus at 100 50% tissue culture infectious doses (TCID50) and peptides at concentrations of 250 and 25 µg/ml were added to the cells simultaneously and incubated for 2 hours at 4°C with frequent stirring. Subsequently, the temperature was increased to 37°C and the mixtures were subjected to a second incubation for 2 hours. […] Cells, at a concentration of 5 x 10^5/ml, were then added to 24 multidish well plates at a final volume of 1.5 ml of growth medium (RPMI supplemented with 10% fetal calf serum (FCS), antibiotics and polybrene (2 µg/ml)), with the addition of peptides at dilutions of 250 or 25 µg/ml. […]
as §3
as §4, with “ELISA.” for “ELISA. The sensitivity of the assay allowed detection of approximately 50 pg of p24 antigen per ml supernatant.”, “units). […]” for “units).”

Cc1cn([C@H]2C[C@H](N=[N+]=[N-])[C@@H](CO)O2)c(=O)[nH]c1=O [AZT, azidothymidine]
# OF SYNCYTIA/WELL Day 9 ([1]; 0.2 µM): 22 | # OF SYNCYTIA/WELL Day 14 ([1]; 0.2 µM): >100 | % OF POS CELLS ([1]; 0.2 µM): 10% | # OF SYNCYTIA/WELL Day 14 ([1]; 0.2 µM, Table 6): 29 | PERCENTAGE OF AG POS CELLS ([1]; 0.2 µM, Table 6): 30 | # OF SYNCYTIA/WELL Day 9 ([1]; 2 µM): 11 | # OF SYNCYTIA/WELL Day 14 ([1]; 2 µM): >100 | % OF POS CELLS ([1]; 2 µM): 10-15% | # OF SYNCYTIA/WELL Day 14 ([1]; 2 µM, Table 6): 4 | PERCENTAGE OF AG POS CELLS ([1]; 2 µM, Table 6): 0.5-2 | # OF SYNCYTIA/WELL Day 9 ([1]; 20 µM): 0 | # OF SYNCYTIA/WELL Day 14 ([1]; 20 µM): 11 | % OF POS CELLS ([1]; 20 µM): 0-1% | # OF SYNCYTIA/WELL Day 14 ([1]; 20 µM, Table 6): 0 | PERCENTAGE OF POS CELLS ([2]; 0.2 µM): 10 | PERCENTAGE OF POS CELLS ([2]; 2 µM): 10 | PERCENTAGE OF POS CELLS ([2]; 20 µM): 10-15 | # OF SYNCYTIA/WELL Day 9 ([3]; 0.2 µM): 16 | % OF POS CELLS ([3]; 0.2 µM): 5-10% | # OF SYNCYTIA/WELL Day 9 ([3]; 2 µM): 10 | % OF POS CELLS ([3]; 2 µM): 5-8% | # OF SYNCYTIA/WELL Day 9 ([3]; 20 µM): 0 | % OF POS CELLS ([3]; 20 µM): 0.1-1% | IC50 ([4]; day 8 postinfection): ~400 nM | IC50 ([4]; twelve days after infection): ~3200 nM

Nc1nc2c(ncn2COCCO)c(=O)[nH]1 [Acyclovir, acyclovir]
yields of HSV-1 ([5]; 2 µM): significantly reduced | YIELD OF HSV AFTER 24 HOURS ([5]; 2 µM, mean of two determinations): 0.9 millions of pfu/ml | activity at 2 µM ([5]; Human alphaherpesvirus 1, GMK, 24 h, read-out: YIELD OF HSV AFTER 24 HOURS PERCENT OF CONTROL): 3%

NCC(=O)N1CCC[C@H]1C(=O)NCC(N)=O [GPG, Gly-Pro-Gly-NH2] (H-Gly-Pro-Gly-NH2)
viability of peripheral blood mononuclear cells ([6]; 2 mM, 4 days, mean of 4 experiments, unexposed cells 99.66%): 99.67% | effect on viability of cultured monocytes and lymphocytes ([6]; doses as high as 2 mM, exposure as long as 4 days): did not appreciably affect the viability | influence on the growth of mice [7]: no significant influence

Arg-Gly-Pro-Gly-Arg (RGPGR; printed: Arg-Gly-Pro-Gly-Arg)
# OF SYNCYTIA/WELL Day 9 ([8]; 25 µg/ml): 14 | # OF SYNCYTIA/WELL Day 14 ([8]; 25 µg/ml): >100 | % OF POS CELLS ([8]; 25 µg/ml): 5-10% | p24 1/10 ([8]; 25 µg/ml): 2.16 absorbance (454 nm) | p24 1/100 ([8]; 25 µg/ml): 0.853 absorbance (454 nm) | p24 1/1,000 ([8]; 25 µg/ml): 0.268 absorbance (454 nm) | p24 1/10,000 ([8]; 25 µg/ml): 0.145 absorbance (454 nm) | # OF SYNCYTIA/WELL Day 9 ([8]; 250 µg/ml): 14 | # OF SYNCYTIA/WELL Day 14 ([8]; 250 µg/ml): >100 | % OF POS CELLS ([8]; 250 µg/ml): 10% | p24 1/10 ([8]; 250 µg/ml): 2.116 absorbance (454 nm) | p24 1/100 ([8]; 250 µg/ml): 0.974 absorbance (454 nm) | p24 1/1,000 ([8]; 250 µg/ml): 0.334 absorbance (454 nm) | p24 1/10,000 ([8]; 250 µg/ml): 0.15 absorbance (454 nm) | PERCENTAGE OF POS CELLS ([9]; 25 µg/ml): 10-15 | p24 1/10 ([9]; 25 µg/ml): 3 absorbance (454 nm) | p24 1/100 ([9]; 25 µg/ml): 2.296 absorbance (454 nm) | p24 1/1,000 ([9]; 25 µg/ml): 0.745 absorbance (454 nm) | p24 1/10,000 ([9]; 25 µg/ml): 0.263 absorbance (454 nm) | PERCENTAGE OF POS CELLS ([9]; 250 µg/ml): 10-15 | p24 1/10 ([9]; 250 µg/ml): 3 absorbance (454 nm) | p24 1/100 ([9]; 250 µg/ml): 1.999 absorbance (454 nm) | p24 1/1,000 ([9]; 250 µg/ml): 0.788 absorbance (454 nm) | p24 1/10,000 ([9]; 250 µg/ml): 0.339 absorbance (454 nm) | infection of treated cells by p24 synthesis and syncytia formation ([10]; Tables 3-5): became infected | prevention of HIV infection by p24 levels and syncytia formation ([10]; Tables 3 to 6): did not prevent HIV infection
